This passage reports melting point results from patent publication US7384965B2, “Fused heterocyclic derivatives as PPAR modulators” (Eli Lilly and Company, priority 2003, dated 2008).

In turn, `Cc1cc(SCc2cccc3[nH]c(-c4ccc(C(F)(F)F)cc4)cc23)ccc1OCC(=O)O` [Example 93, 2-Methyl-4-[2-(4-trifluoromethylphenyl)-1H-indol-4-ylmethylsulfanyl]phenoxyacetic Acid] registered a melting point of 85 to 88 °C. The value for `Cc1cc(SCc2cccc3c2nc(-c2ccc(C(F)(F)F)cc2)n3C)ccc1OCC(=O)O` [Example 89, 2-Methyl-4-[1-methyl-2-(4-trifluoromethylphenyl)-1H-benzoimidazol-4-ylmethylsulfanyl]phenoxyacetic Acid] was 192 to 194 °C; that for `Cc1cc(OCc2ccc3nc(-c4ccc(C(F)(F)F)cc4)sc3c2)ccc1CCC(=O)O` [Example 60, 3-{2-Methyl-4-[2-(4-trifluoromethylphenyl)benzothiazol-6-ylmethoxy]phenyl}propionic Acid] was 198 to 200 °C. The value for `O=C(O)Cc1cccc(SCc2cccc3sc(-c4ccc(C(F)(F)F)cc4)nc23)c1` [Example 41] was 140 to 143 °C.

The molecule `O=C(O)Cc1csc2cc(SCc3cccc4nc(-c5ccc(C(F)(F)F)cc5)oc34)ccc12` [Example 71, 6-[2-(4-Trifluoromethylphenyl)benzooxazol-7-ylmethylsulfanyl]benzo[b]thiophen-3-ylacetic Acid] gave a melting point of 208 to 210 °C. The value for `Cc1cc(SC(C)(C)c2cccc3nc(-c4ccc(C(F)(F)F)cc4)oc23)ccc1CCC(=O)O` [Example 76, 3-(2-Methyl-4-{1-methyl-1-[2-(4-trifluoromethylphenyl)benzooxazol-7-yl]ethylsulfanyl}phenyl)propionic Acid] was 104 to 107 °C; that for `Cc1cc(SCc2ccc3sc(-c4ccc(C(F)(F)F)cc4)nc3c2)ccc1OCC(=O)O` [Example 51, 2-Methyl-4-[2-(4-trifluoromethylphenyl)benzothiazol-5-ylmethylsulfanyl]phenoxyacetic Acid] was 138 to 140 °C; that for `CCc1cc(SCc2cccc3[nH]c(-c4ccc(C(F)(F)F)cc4)nc23)ccc1OCC(=O)O` [Example 87, 2-Ethyl-4-[2-(4-trifluoromethylphenyl)-1H-benzoimidazol-4-ylmethylsulfanyl]phenoxyacetic Acid] was 223 °C (dec.). As for `Cc1cc(SCc2ccc3nc(-c4ccc(C(F)(F)F)cc4)sc3c2)ccc1CCC(=O)O` [Example 58, 3-{2-Methyl-4-[2-(4-trifluoromethylphenyl)benzothiazol-6-ylmethylsulfanyl]phenyl}propionic Acid], the figure is 194 to 196 °C; as for `Cc1cc(SCc2ccc3sc(-c4ccc(C(F)(F)F)cc4)nc3c2)ccc1CCC(=O)O` [Example 52, 3-{2-Methyl-4-[2-(4-trifluoromethylphenyl)benzothiazol-5-ylmethylsulfanyl]phenyl}propionic Acid], 141 to 143 °C; as for `Cc1cc(SCc2ccc3nc(-c4ccc(C(F)(F)F)cc4)sc3c2)ccc1OCC(=O)O` [Example 57, 2-Methyl-4-[2-(4-trifluoromethylphenyl)benzothiazol-6-ylmethylsulfanyl]phenoxyacetic Acid], 176 to 177 °C. As for `Cc1cc(SCc2ccnc3oc(-c4ccc(C(F)(F)F)cc4)nc23)ccc1OCC(=O)O` [Example 95, 2-Methyl-4-[2-(4-trifluoromethylphenyl)oxazolo[5,4-b]pyridine-7-ylmethylsulfanyl]phenoxyacetic Acid], the figure is 154 to 157 °C. As for `Cc1cc(OCc2ccc3sc(-c4ccc(C(F)(F)F)cc4)nc3c2)ccc1CCC(=O)O` [Example 54, 3-{2-Methyl-4-[2-(4-trifluoromethylphenyl)benzothiazol-5-ylmethoxy]phenyl}propionic Acid], the melting point lay within 174 to 176 °C.

Consider `Cc1cc(SCc2ccnc3c2nc(-c2ccc(C(F)(F)F)cc2)n3C)ccc1CCC(=O)O` [Example 108, 3-{2-Methyl-4-[3-methyl-2-(4-trifluoromethylphenyl)-3H-imidazo[4,5-b]pyridin-7-ylmethylsulfanyl]phenyl}propionic Acid], for which the melting point lay within 89 to 91 °C. In the case of `Cc1cc(SCc2cccc3nc(-c4ccc(C(F)(F)F)cc4)sc23)ccc1OCC(=O)O` [Example 44, 2-Methyl-4-[2-(4-trifluoromethylphenyl)benzothiazol-7-ylmethylsulfanyl]phenoxyacetic Acid], the melting point was in the range of 193 to 196 °C. For the molecule `Cc1cc(SCc2ccnc3[nH]c(-c4ccc(C(F)(F)F)cc4)nc23)ccc1CCC(=O)O` [Example 104, 3-{2-Methyl-4-[2-(4-trifluoromethylphenyl)-3H-imidazo[4,5-b]pyridin-7-ylmethylsulfanyl]phenyl}propionic Acid], the melting point is 180 to 182 °C. Consider `CCc1cc(SCc2cccc3c2nc(-c2ccc(C(F)(F)F)cc2)n3C)ccc1OCC(=O)O` [Example 91, 2-Ethyl-4-[1-methyl-2-(4-trifluoromethylphenyl)-1H-benzoimidazol-4-ylmethylsulfanyl]phenoxyacetic Acid], for which the melting point lay in the range of 178 to 180 °C. `CCc1cc(SCc2ccnc3oc(-c4ccc(C(F)(F)F)cc4)nc23)ccc1OCC(=O)O` [Example 97, 2-Ethyl-4-[2-(4-trifluoromethylphenyl)oxazolo[5,4-b]pyridin-7-ylmethylsulfanyl]phenoxyacetic Acid] displayed a melting point of 59 to 62 °C. As for `Cc1cc(SCc2cccc3[nH]c(-c4ccc(C(F)(F)F)cc4)nc23)ccc1OCC(=O)O` [Example 85, 2-Methyl-4-[2-(4-trifluoromethylphenyl)-1H-benzoimidazol-4-ylmethylsulfanyl]phenoxyacetic Acid], the figure is 238 to 240 °C (dec.); as for `CCc1cc(SCc2ccc3nc(-c4ccc(C(F)(F)F)cc4)sc3c2)ccc1OCC(=O)O` [Example 59, 2-Ethyl-4-[2-(4-trifluoromethylphenyl)benzothiazol-6-ylmethylsulfanyl]phenoxyacetic Acid], 144 to 147 °C. The value for `CCc1cc(SC(C)(C)c2cccc3nc(-c4ccc(C(F)(F)F)cc4)oc23)ccc1OCC(=O)O` [Example 77, 2-Ethyl-4-{1-methyl-1-[2-(4-trifluoromethylphenyl)benzooxazol-7-yl]ethylsulfanyl}phenoxyacetic Acid] was 122 to 125 °C. Consider `CCc1cc(OC(C)c2cccc3nc(-c4ccc(C(F)(F)F)cc4)oc23)ccc1CCC(=O)O` (racemic) [Example 84, (+/−)-3-(2-Ethyl-4-{1-[2-(4-trifluoromethylphenyl)benzooxazol-7-yl]ethoxy}phenyl)propionic Acid], for which the melting point was in the range of 60 to 63 °C.

The molecule `CCc1cc(SCc2cccc3nc(-c4ccc(C(F)(F)F)cc4)oc23)ccc1OCC(=O)O` [Example 72, 2-Ethyl-4-[2-(4-trifluoromethylphenyl)benzooxazol-7-ylmethylsulfanyl]phenoxyacetic Acid] displayed a melting point of 170 to 173 °C. Turning to `CCc1cc(SCc2cccc3[nH]c(-c4ccc(C(F)(F)F)cc4)cc23)ccc1OCC(=O)O` [Example 94, 2-Ethyl-4-[2-(4-trifluoromethylphenyl)-1H-indol-4-ylmethylsulfanyl]phenoxyacetic Acid], the melting point was in the range of 174 to 176 °C.

`Cc1cc(SCc2ccnc3sc(-c4ccc(C(F)(F)F)cc4)nc23)ccc1OCC(=O)O` [Example 100, 2-Methyl-4-[2-(4-trifluoromethylphenyl)thiazolo[5,4-b]pyridine-7-ylmethylsulfanyl]phenoxyacetic Acid] returned a melting point of 82 to 85 °C. Molecule `CCc1cc(SCc2cccc3nc(-c4ccc(C(F)(F)F)cc4)sc23)ccc1OCC(=O)O` [Example 45, 2-Ethyl-4-[2-(4-trifluoromethylphenyl)benzothiazol-7-ylmethylsulfanyl]phenoxyacetic Acid] returned a melting point of 160 to 164 °C.

In the case of `Cc1cc(SCc2cccc3nc(-c4ccc(C(F)(F)F)cc4)oc23)ccc1CCC(=O)O` [Example 69, 3-{2-Methyl-4-[2-(4-trifluoromethylphenyl)benzooxazol-7-ylmethylsulfanyl]phenyl}propionic Acid], the melting point fell in the range of 155 to 157 °C. Consider `Cc1cc(SCc2ccnc3oc(-c4ccc(C(F)(F)F)cc4)nc23)ccc1CCC(=O)O` [Example 96, 3-{2-Methyl-4-[2-(4-trifluoromethylphenyl)oxazolo[5,4-b]pyridin-7-ylmethylsulfanyl]phenyl}propionic Acid], for which the melting point is > 260 °C (dec.). Turning to `O=C(O)Cc1cccc(SCc2ccnc3[nH]c(-c4ccc(C(F)(F)F)cc4)nc23)c1` [Example 107], the melting point was 213 to 215 °C. For `Cc1cc(SCc2cccc3c2nc(-c2ccc(C(F)(F)F)cc2)n3C)ccc1CCC(=O)O` [Example 90, 3-{2-Methyl-4-[1-methyl-2-(4-trifluoromethylphenyl)-1H-benzoimidazol-4-ylmethylsulfanyl]phenyl}propionic Acid], the melting point fell in the range of 168 to 170 °C. The value for `O=C(O)Cc1csc2cc(SCc3ccnc4oc(-c5ccc(C(F)(F)F)cc5)nc34)ccc12` [Example 98, 6-[2-(4-Trifluoromethylphenyl)oxazolo[5,4-b]pyridine-7-ylmethylsulfanyl]benzo[b]thiophen-3-ylacetic Acid] was 203 to 205 °C; that for `Cc1cc(SCc2cccc3oc(-c4ccc(C(F)(F)F)cc4)nc23)ccc1CCC(=O)O` [Example 66, 3-2-Methyl-4-[2-(4-trifluoromethylphenyl)benzooxazol-4-ylmethylsulfanyl]phenylpropionic Acid] was 181 to 183 °C. As for `CCc1cc(SCc2ccnc3[nH]c(-c4ccc(C(F)(F)F)cc4)nc23)ccc1OCC(=O)O` [Example 105, 2-Ethyl-4-[2-(4-trifluoromethylphenyl)-3H-imidazo[4,5-b]pyridin-7-ylmethylsulfanyl]phenoxyacetic Acid], the figure is 188 to 190 °C; as for `Cc1cc(SCc2cccc3nc(-c4ccc(C(F)(F)F)cc4)oc23)ccc1OCC(=O)O` [Example 68, 2-Methyl-4-[2-(4-trifluoromethylphenyl)-benzooxazol-7-ylmethylsulfanyl]-phenoxyacetic Acid], 180 to 182 °C; as for `Cc1cc(SCCc2cccc3sc(-c4ccc(C(F)(F)F)cc4)nc23)ccc1OCC(=O)O` [Example 48, 2-Methyl-4-{2-[2-(4-trifluoromethylphenyl)benzothiazol-4-yl]ethylsulfanyl}phenoxyacetic Acid], 97 to 100 °C.
